Tests used:
[1] = tested on: Hepatotoxicity;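 as to HepSE bilirubinemia: bilirubinemia hepatic side effect score drawn from the DILIps training data, a prediction system for drug-induced liver injury; call rule not given here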;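 as to HepSE elevated liver function tests: hepatic side effect score for raised liver function tests, as recorded in the DILIps training set used for predicting drug-induced liver injury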; as to HepSE hepatic failure: call rule not given here;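 as to HepSE hepatomegaly: hepatic side effect score for hepatomegaly, taken from the training set of the DILIps drug-induced liver injury prediction system; call rule not given here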;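 as to HepSE liver fatty: hepatic side effect score for fatty liver, taken from the DILIps training set for predicting drug-induced liver injury; call rule not given here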;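 as to HepSE liver function tests abnormal: hepatic side effect score taken from the DILIps (drug-induced liver injury prediction system) training data, here covering abnormal liver function test findings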
[2] = tested on: Hepatotoxicity; remark: listed apart in the source;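 as to HepSE bilirubinemia: bilirubinemia hepatic side effect score drawn from the DILIps training data, a prediction system for drug-induced liver injury; call rule not given here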;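 as to HepSE elevated liver function tests: hepatic side effect score for raised liver function tests, as recorded in the DILIps training set used for predicting drug-induced liver injury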; as to HepSE hepatic failure: call rule not given here;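 as to HepSE hepatomegaly: hepatic side effect score for hepatomegaly, taken from the training set of the DILIps drug-induced liver injury prediction system; call rule not given here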;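 as to HepSE liver fatty: hepatic side effect score for fatty liver, taken from the DILIps training set for predicting drug-induced liver injury; call rule not given here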;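 as to HepSE liver function tests abnormal: hepatic side effect score taken from the DILIps (drug-induced liver injury prediction system) training data, here covering abnormal liver function test findings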
[3] = tested on: Hepatotoxicity; remark: listed apart in the source;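 as to HepSE bilirubinemia: bilirubinemia hepatic side effect score drawn from the DILIps training data, a prediction system for drug-induced liver injury; call rule not given here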;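 as to HepSE elevated liver function tests: hepatic side effect score for raised liver function tests, as recorded in the DILIps training set used for predicting drug-induced liver injury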; as to HepSE hepatic failure: call rule not given here;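 as to HepSE hepatomegaly: hepatic side effect score for hepatomegaly, taken from the training set of the DILIps drug-induced liver injury prediction system; call rule not given here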;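 as to HepSE liver fatty: hepatic side effect score for fatty liver, taken from the DILIps training set for predicting drug-induced liver injury; call rule not given here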;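 as to HepSE liver function tests abnormal: hepatic side effect score taken from the DILIps (drug-induced liver injury prediction system) training data, here covering abnormal liver function test findings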
[4] = tested on: Hepatotoxicity; remark: listed apart in the source;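 as to HepSE bilirubinemia: bilirubinemia hepatic side effect score drawn from the DILIps training data, a prediction system for drug-induced liver injury; call rule not given here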;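 as to HepSE elevated liver function tests: hepatic side effect score for raised liver function tests, as recorded in the DILIps training set used for predicting drug-induced liver injury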; as to HepSE hepatic failure: call rule not given here;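 as to HepSE hepatomegaly: hepatic side effect score for hepatomegaly, taken from the training set of the DILIps drug-induced liver injury prediction system; call rule not given here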;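 as to HepSE liver fatty: hepatic side effect score for fatty liver, taken from the DILIps training set for predicting drug-induced liver injury; call rule not given here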;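 as to HepSE liver function tests abnormal: hepatic side effect score taken from the DILIps (drug-induced liver injury prediction system) training data, here covering abnormal liver function test findings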
[5] = tested on: Hepatotoxicity; remark: listed apart in the source; as to HepSE hepatic failure: call rule not given here
[6] = tested on: Hepatotoxicity; remark: listed apart in the source; as to HepSE hepatic failure: call rule not given here
[7] = tested on: Hepatotoxicity; remark: listed apart in the source
[8] = tested on: Hepatotoxicity; remark: listed apart in the source
[9] = tested on: Hepatotoxicity; remark: listed apart in the source
[10] = tested on: Hepatotoxicity; remark: listed apart in the source
[11] = tested on: Hepatotoxicity; remark: listed apart in the source
[12] = tested on: Hepatotoxicity; remark: listed apart in the source
[13] = tested on: Hepatotoxicity; remark: listed apart in the source
[14] = tested on: Hepatotoxicity; remark: listed apart in the source

Structure (SMILES) | HepSE_bilirubinemia [1] | HepSE_hepatomegaly [2] | HepSE_liver fatty [3] | HepSE_elevated liver function tests [4] | HepSE_hepatic failure [5] | HepSE_liver function tests abnormal [6] | HepSE_hepatitis [7] | HepSE_cirrhosis [8] | HepSE_cholelithiasis [9] | HepSE_liver disease [10] | HepSE_cholecystitis [11] | HepSE_jaundice [12] | HepSE_hepatic necrosis [13] | HepSE_Combined Scores [14] | other results
O=C1OC2(c3ccc(O)cc3Oc3cc(O)ccc32)c2ccccc21 [FLUORESCEIN] | 0 | 0 | 0 | 0 | 0 | 0 | 0 | 0 | 0 | 0 | 0 | 0 | 0 | 0 | –
CC(=O)[C@@]1(O)CC[C@H]2[C@@H]3C[C@H](C)C4=CC(=O)C=C[C@]4(C)[C@@]3(F)[C@@H](O)C[C@@]21C [FLUOROMETHOLONE] | 0 | 0 | 0 | 0 | 0 | 0 | 0 | 0 | 0 | 0 | 0 | 0 | 0 | 0 | –
O=c1[nH]cc(F)c(=O)[nH]1 [FLUOROURACIL] | 0 | 0 | 0 | 0 | 0 | 0 | 0 | 0 | 0 | 0 | 0 | 0 | 0 | 0 | –
CNCCC(Oc1ccc(C(F)(F)F)cc1)c1ccccc1 (centres undefined) [FLUOXETINE] | 0 | 1 | 1 | 0 | 1 | 1 | 1 | 0 | 1 | 0 | 1 | 1 | 0 | 8 | –
C[C@]1(O)CC[C@H]2[C@@H]3CCC4=CC(=O)CC[C@]4(C)[C@@]3(F)[C@@H](O)C[C@@]21C [FLUOXYMESTERONE] | 0 | 0 | 0 | 0 | 0 | 0 | 0 | 0 | 0 | 0 | 0 | 1 | 0 | 1 | –
OCCN1CCN(CCCN2c3ccccc3Sc3ccc(C(F)(F)F)cc32)CC1 [FLUPHENAZINE] | 0 | 0 | 0 | 0 | 0 | 0 | 1 | 0 | 0 | 0 | 0 | 1 | 0 | 2 | –
CC1(C)O[C@@H]2C[C@H]3[C@@H]4C[C@H](F)C5=CC(=O)CC[C@]5(C)[C@H]4[C@@H](O)C[C@]3(C)[C@]2(C(=O)CO)O1 [FLURANDRENOLIDE] | 0 | 0 | 0 | 0 | 0 | 0 | 0 | 0 | 0 | 0 | 0 | 0 | 0 | 0 | –
CCN(CC)CCN1C(=O)CN=C(c2ccccc2F)c2cc(Cl)ccc21 [FLURAZEPAM] | 0 | 0 | 0 | 0 | 0 | 0 | 0 | 0 | 0 | 0 | 0 | 0 | 0 | 0 | –
CC(C(=O)O)c1ccc(-c2ccccc2)c(F)c1 (centres undefined) [FLURBIPROFEN] | 0 | 0 | 0 | 0 | 1 | 0 | 1 | 0 | 0 | 0 | 1 | 1 | 0 | 4 | –
CC(C)C(=O)Nc1ccc([N+](=O)[O-])c(C(F)(F)F)c1 [FLUTAMIDE] | 0 | 0 | 0 | 0 | 0 | 0 | 1 | 0 | 0 | 0 | 0 | 1 | 1 | 3 | –
C[C@@H]1C[C@H]2[C@@H]3C[C@H](F)C4=CC(=O)C=C[C@]4(C)[C@@]3(F)[C@@H](O)C[C@]2(C)[C@@]1(O)C(=O)SCF [FLUTICASONE] | 0 | 0 | 0 | 0 | 0 | 0 | 0 | 0 | 0 | 0 | 1 | 0 | 0 | 1 | –
CC(C)n1c(/C=C/C(O)CC(O)CC(=O)O)c(-c2ccc(F)cc2)c2ccccc21 (centres undefined) [FLUVASTATIN] | – | – | – | – | – | – | – | – | – | – | – | – | – | – | HepSE_bilirubinemia ([1]; Liver): 0; HepSE_hepatomegaly ([2]; Liver): 0; HepSE_liver fatty ([3]; Liver): 0; HepSE_elevated liver function tests ([4]; Liver): 0; HepSE_hepatic failure ([5]; Liver): 0; HepSE_liver function tests abnormal ([6]; Liver): 0; HepSE_hepatitis ([7]; Liver): 1; HepSE_cirrhosis ([8]; Liver): 1; HepSE_cholelithiasis ([9]; Liver): 0; HepSE_liver disease ([10]; Liver): 0; HepSE_cholecystitis ([11]; Liver): 0; HepSE_jaundice ([12]; Liver): 1; HepSE_hepatic necrosis ([13]; Liver): 1; HepSE_Combined Scores ([14]; Liver): 4
COCCCC/C(=N\OCCN)c1ccc(C(F)(F)F)cc1 [FLUVOXAMINE] | 0 | 0 | 0 | 0 | 0 | 1 | 1 | 0 | 1 | 0 | 1 | 1 | 0 | 5 | –
Nc1nc2ncc(CNc3ccc(C(=O)N[C@@H](CCC(=O)O)C(=O)O)cc3)nc2c(=O)[nH]1 [FOLIC ACID] | 0 | 0 | 0 | 0 | 0 | 0 | 0 | 0 | 0 | 0 | 0 | 0 | 0 | 0 | –
Cc1cn[nH]c1 [FOMEPIZOLE] | 0 | 0 | 0 | 0 | 0 | 0 | 0 | 0 | 0 | 0 | 0 | 0 | 0 | 0 | –
CO[C@H]1O[C@H](COS(=O)(=O)[O-])[C@@H](O[C@@H]2O[C@@H](C(=O)[O-])[C@@H](O[C@H]3O[C@H](COS(=O)(=O)[O-])[C@@H](O[C@@H]4O[C@H](C(=O)[O-])[C@@H](O[C@H]5O[C@H](COS(=O)(=O)[O-])[C@@H](O)[C@H](O)[C@H]5NS(=O)(=O)[O-])[C@H](O)[C@H]4O)[C@H](OS(=O)(=O)[O-])[C@H]3NS(=O)(=O)[O-])[C@H](O)[C@H]2OS(=O)(=O)[O-])[C@H](O)[C@H]1NS(=O)(=O)[O-].[Na+].[Na+].[Na+].[Na+].[Na+].[Na+].[Na+].[Na+].[Na+].[Na+] [FONDAPARINUX SODIUM] | 0 | 0 | 0 | 0 | 0 | 0 | 0 | 0 | 0 | 1 | 0 | 0 | 0 | 1 | –

Source: ChEMBL document CHEMBL1909294, “Translating clinical findings into knowledge in drug safety evaluation--drug induced liver injury prediction system (DILIps)” (PLoS Comput Biol, 2011)
